Measurements taken from PubChem BioAssay AID1963439 (Molecular Pharmacology Branch, DTP, NCI, 2024).
“And” between values parts separate entries of the source, which are not always exact repeats. Equal entries are not always repeated.

Test system: NCI-H196 complex spheroids with HUVEC/MSC, growth % T/C
Assay: Anticancer human tumor NCI-H196 cell line growth inhibition [Asc];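 note: spheroids exposed to compound for 7 days before measurement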;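 for viability, T/C: 100% = DMSO vehicle control wells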
Conditions: for viability, T/C: stronger effect = lower value
Procedure, shortened: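 Spheroid model: tumor line + HUVEC + hMSC. Single agents and combinations; top conc. at/near clinical Cmax (10 microM if undetermined), half-log dilutions. DMSO stocks at 800-fold test concentration.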

[1] = curve of first compound, second compound 0.03 µM
[2] = curve of first compound, second compound 0.0949 µM
[3] = curve of first compound, second compound 0.3 µM
[4] = curve of first compound, second compound 0.949 µM
[5] = curve of first compound, second compound 3 µM
[6] = second compound 0.03 µM, first compound 0.0316 µM
[7] = second compound 0.03 µM, first compound 0.1 µM
[8] = second compound 0.03 µM, first compound 0.316 µM
[9] = second compound 0.03 µM, first compound 1 µM
[10] = second compound 0.0949 µM, first compound 0.0316 µM
[11] = second compound 0.0949 µM, first compound 0.1 µM
[12] = second compound 0.0949 µM, first compound 0.316 µM
[13] = second compound 0.0949 µM, first compound 1 µM
[14] = second compound 0.3 µM, first compound 0.0316 µM
[15] = second compound 0.3 µM, first compound 0.1 µM
[16] = second compound 0.3 µM, first compound 0.316 µM
[17] = second compound 0.3 µM, first compound 1 µM
[18] = second compound 0.949 µM, first compound 0.0316 µM
[19] = second compound 0.949 µM, first compound 0.1 µM
[20] = second compound 0.949 µM, first compound 0.316 µM
[21] = second compound 0.949 µM, first compound 1 µM
[22] = second compound 3 µM, first compound 0.0316 µM
[23] = second compound 3 µM, first compound 0.1 µM
[24] = second compound 3 µM, first compound 0.316 µM
[25] = second compound 3 µM, first compound 1 µM
[26] = second compound 0.03 µM, first compound 0.00316 µM
[27] = second compound 0.03 µM, first compound 0.01 µM
[28] = second compound 0.0949 µM, first compound 0.00316 µM
[29] = second compound 0.0949 µM, first compound 0.01 µM
[30] = second compound 0.3 µM, first compound 0.00316 µM
[31] = second compound 0.3 µM, first compound 0.01 µM
[32] = second compound 0.949 µM, first compound 0.00316 µM
[33] = second compound 0.949 µM, first compound 0.01 µM
[34] = second compound 3 µM, first compound 0.00316 µM
[35] = second compound 3 µM, first compound 0.01 µM

## C=CC(=O)N1CCN(c2nc(=O)n(-c3c(C)ccnc3C(C)C)c3nc(-c4c(O)cccc4F)c(F)cc23)C(C)C1 (stereo unspecified) + CCN1C(C(=O)NC23CCC(C(=O)O)(CC2)CC3)C(c2cccc(Cl)c2F)C2(C(=O)Nc3cc(Cl)ccc32)C12CCCCC2
[1]
  IC50: > 10000 nM
[2]
  IC50: > 10000 nM
[3]
  IC50: > 10000 nM
[4]
  IC50: > 10000 nM
[5]
  IC50: > 10000 nM
[6]
  viability, T/C: 104%
[7]
  viability, T/C: 105%
[8]
  viability, T/C: 104%
[9]
  viability, T/C: 107%
Second compound 0.03 µM, first compound 3.16 µM
  viability, T/C: 121%
Second compound 0.03 µM, first compound 10 µM
  viability, T/C: 107%
[10]
  viability, T/C: 111%
[11]
  viability, T/C: 111%
[12]
  viability, T/C: 121%
[13]
  viability, T/C: 112%
Second compound 0.0949 µM, first compound 3.16 µM
  viability, T/C: 106%
Second compound 0.0949 µM, first compound 10 µM
  viability, T/C: 103%
[14]
  viability, T/C: 106%
[15]
  viability, T/C: 109%
[16]
  viability, T/C: 108%
[17]
  viability, T/C: 107%
Second compound 0.3 µM, first compound 3.16 µM
  viability, T/C: 117%
Second compound 0.3 µM, first compound 10 µM
  viability, T/C: 119%
[18]
  viability, T/C: 123%
[19]
  viability, T/C: 110%
[20]
  viability, T/C: 115%
[21]
  viability, T/C: 110%
Second compound 0.949 µM, first compound 3.16 µM
  viability, T/C: 140%
Second compound 0.949 µM, first compound 10 µM
  viability, T/C: 110%
[22]
  viability, T/C: 116%
[23]
  viability, T/C: 120%
[24]
  viability, T/C: 115%
[25]
  viability, T/C: 124%
Second compound 3 µM, first compound 3.16 µM
  viability, T/C: 135%
Second compound 3 µM, first compound 10 µM
  viability, T/C: 132%

## CNC(C)C(=O)NC1CN(S(=O)(=O)c2cccc(S(=O)(=O)N3CCC4CCC(C(=O)NC(c5ccccc5)c5ccccc5)N4C(=O)C(NC(=O)C(C)NC)C3)c2)CCC2CCC(C(=O)NC(c3ccccc3)c3ccccc3)N2C1=O (stereo unspecified)
Compound 0.00316 µM
  viability, T/C: 38.2% and 43%
Compound 0.01 µM
  viability, T/C: 7.09% [middle of 14 runs]
Compound 0.0316 µM
  viability, T/C: 5.61% [middle of 14 runs]
Compound 0.1 µM
  viability, T/C: 3.73% [middle of 14 runs]
Compound 0.316 µM
  viability, T/C: 3.32% [middle of 13 runs]
Compound 1 µM
  viability, T/C: 2.97% [middle of 14 runs]
Compound alone, run of 10/03/2022
  IC50: < 10 nM
Curve of compound
  IC50: < 3.16 nM

## COc1c(OCCCN2CCOCC2)ccc2c3n(c(=NC(=O)c4cnc(N)nc4)nc12)CCN3
Compound 0.00316 µM
  viability, T/C: 96% and 93% and 109%
Compound 0.01 µM
  viability, T/C: 91.4% and 90.6% and 101%
Compound 0.0316 µM
  viability, T/C: 94.1% and 100% and 108%
Compound 0.1 µM
  viability, T/C: 77.4% and 86.4% and 90.1%
Compound 0.316 µM
  viability, T/C: 67.9% and 69.6% and 69.5%
Compound 1 µM
  viability, T/C: 56.8% and 50.8% and 51%
Curve of compound
  IC50: > 1000 nM

## CNC(C)C(=O)NC1CN(S(=O)(=O)c2cccc(S(=O)(=O)N3CCC4CCC(C(=O)NC(c5ccccc5)c5ccccc5)N4C(=O)C(NC(=O)C(C)NC)C3)c2)CCC2CCC(C(=O)NC(c3ccccc3)c3ccccc3)N2C1=O (stereo unspecified) + CCN1C(C(=O)NC23CCC(C(=O)O)(CC2)CC3)C(c2cccc(Cl)c2F)C2(C(=O)Nc3cc(Cl)ccc32)C12CCCCC2
[1]
  IC50: < 3.16 nM
[2]
  IC50: < 3.16 nM
[3]
  IC50: < 3.16 nM
[4]
  IC50: 3.18 nM
[5]
  IC50: < 3.16 nM
[26]
  viability, T/C: 40.6%
[27]
  viability, T/C: 17.9%
[6]
  viability, T/C: 4.75%
[7]
  viability, T/C: 1.79%
[8]
  viability, T/C: 2.4%
[9]
  viability, T/C: 1.46%
[28]
  viability, T/C: 45.3%
[29]
  viability, T/C: 19.1%
[10]
  viability, T/C: 4.24%
[11]
  viability, T/C: 4.09%
[12]
  viability, T/C: 2.61%
[13]
  viability, T/C: 1.28%
[30]
  viability, T/C: 47.4%
[31]
  viability, T/C: 16.6%
[14]
  viability, T/C: 5.95%
[15]
  viability, T/C: 3.82%
[16]
  viability, T/C: 3.47%
[17]
  viability, T/C: 1.29%
[32]
  viability, T/C: 50.4%
[33]
  viability, T/C: 18.4%
[18]
  viability, T/C: 6.82%
[19]
  viability, T/C: 2.74%
[20]
  viability, T/C: 2.84%
[21]
  viability, T/C: 2.2%
[34]
  viability, T/C: 47.6%
[35]
  viability, T/C: 16.9%
[22]
  viability, T/C: 4.77%
[23]
  viability, T/C: 2.4%
[24]
  viability, T/C: 3.09%
[25]
  viability, T/C: 1.59%

## Cn1ncnc1[C@H]1c2n[nH]c(=O)c3cc(F)cc(c23)N[C@@H]1c1ccc(F)cc1 + CCN1C(C(=O)NC23CCC(C(=O)O)(CC2)CC3)C(c2cccc(Cl)c2F)C2(C(=O)Nc3cc(Cl)ccc32)C12CCCCC2
[1]
  IC50: > 100 nM
[2]
  IC50: > 100 nM
[3]
  IC50: > 100 nM
[4]
  IC50: > 100 nM
[5]
  IC50: > 100 nM
Second compound 0.03 µM, first compound 0.000316 µM
  viability, T/C: 107%
Second compound 0.03 µM, first compound 0.001 µM
  viability, T/C: 109%
[26]
  viability, T/C: 107%
[27]
  viability, T/C: 108%
[6]
  viability, T/C: 107%
[7]
  viability, T/C: 104%
Second compound 0.0949 µM, first compound 0.000316 µM
  viability, T/C: 118%
Second compound 0.0949 µM, first compound 0.001 µM
  viability, T/C: 125%
[28]
  viability, T/C: 114%
[29]
  viability, T/C: 102%
[10]
  viability, T/C: 114%
[11]
  viability, T/C: 109%
Second compound 0.3 µM, first compound 0.000316 µM
  viability, T/C: 118%
Second compound 0.3 µM, first compound 0.001 µM
  viability, T/C: 128%
[30]
  viability, T/C: 119%
[31]
  viability, T/C: 121%
[14]
  viability, T/C: 113%
[15]
  viability, T/C: 112%
Second compound 0.949 µM, first compound 0.000316 µM
  viability, T/C: 139%
Second compound 0.949 µM, first compound 0.001 µM
  viability, T/C: 138%
[32]
  viability, T/C: 120%
[33]
  viability, T/C: 118%
[18]
  viability, T/C: 112%
[19]
  viability, T/C: 126%
Second compound 3 µM, first compound 0.000316 µM
  viability, T/C: 124%
Second compound 3 µM, first compound 0.001 µM
  viability, T/C: 136%
[34]
  viability, T/C: 132%
[35]
  viability, T/C: 129%
[22]
  viability, T/C: 131%
[23]
  viability, T/C: 121%

## Cc1c(S(C)(=O)=O)c(-c2cc(F)cc(N3CCN(c4ccc(NS(=O)(=O)c5ccc(NC(CCN6CCC(C(=O)OCCCP(=O)(O)O)CC6)CSc6ccccc6)c(S(=O)(=O)C(F)(F)F)c5)cc4)CC3)c2)c(-c2ccc(Cl)cc2)n1C(C)C (stereo unspecified)
Compound 0.1 µM
  viability, T/C: 94.5% [middle of 14 runs]
Compound 0.316 µM
  viability, T/C: 92.9% [middle of 14 runs]
Compound 1 µM
  viability, T/C: 91.4% [middle of 14 runs]
Compound 3.16 µM
  viability, T/C: 82.2% [middle of 14 runs]
Compound 10 µM
  viability, T/C: 75.3% [middle of 14 runs]
Compound alone, run of 09/27/2022
  IC50: > 10000 nM
